Results from patent US7524865B2, “Methods and compositions for treating an ocular neovascular disease” (priority 1993, dated 2009).
Like-named read-outs stand apart in the source and are kept apart here.

Columns and labels:
[1] = test system: βFGF induced corneal neovascularization; details: for median inhibition of the area of vascularized cornea: day 8, percent of median control
Experimental: Pellets for implantation into rabbit corneas were made by mixing 110 μl of saline containing 12 μg of recombinant βFGF (Takeda Pharmaceuticals-Japan) with 40 mg of sucralfate (Bukh Meditec-Denmark); this suspension was added to 80 μl of 12% hydron (Interferon Sciences) in ethanol. 10 μl aliquots of this mixture was then pipetted onto teflon pegs and allowed to dry producing approximately 17 pellets. A pellet was implanted into corneal micropockets of each eye of an anesthetized female New Zealand white rabbit, 2 mm from the limbus followed by topical application of erythromycin ointment onto the surface of the cornea. The animals were fed daily from 2 days post-implantation by gastric lavage with either drug suspended in 0.5% carboxymethyl cellulose or 0.5% carboxymethyl cellulose alone. Thalidomide was purchased from Andrulus Pharmaceutical (Maryland) and the EM-12 and Supidimide were kindly provided by Grunenthal GMBH (Germany). The animals were examined with a slit lamp every other day in a masked manner by the same corneal specialist. The area of corneal neovascularization was determined by measuring with a reticule the vessel length (L) from the limbus and the number of clock hours (C) of limbus involved. A formula was used to determine the area of a circular band segment: C/12*3.1416 [r^2−(r−L)^2] where r=6 mm the measured radius of the rabbit cornea.
Pellets containing βFGF and sucralfate were implanted into micropockets of both corneas of rabbits according to Example II. […] The area of corneal neovascularization was measured from day 4 through day 12. Day 8 measurements were used for comparison between groups. […] Statistical analysis was performed with ANOVA with ranked data to account for interexperimental variation and to guard against a non-normal distribution of data (i.e. outliers) by utilizing a nonparametric method.

B16-BL6 melanoma cells = assay: B16-BL6 melanoma pulmonary metastasis model; format: in vivo, C57B1/6 mice
Experimental: B16-BL6 melanoma cells (5×10^4) were injected intravenously into the tail veins of C57B1/6 mice. Three days later, the mice were treated intraperitoneally with increasing doses of thalidomide or 2-phthalimidinoglutaric acid (EM-138) on alternate days. Fourteen days after tumor cell inoculation, the lungs were removed from the mice and the surface pulmonary metastases were counted.
B16-BL6 melanoma cells (5×10^4) were injected intravenously into the tail veins of C57B1/6 mice. Three days later, the mice were treated orally with increasing doses of thalidomide or 2-phthalimidinoglutaric acid (EM-138) on alternate days. Fourteen days after tumor cell inoculation, the lungs were removed from the mice and the surface pulmonary metastases were counted.
B16-BL6 melanoma cells (5×10^4) were injected intravenously into the tail veins of C57B1/6 mice. Three days later, the mice received a gavage treatment with 0.8 mmol/kg of 2-phthalimidinoglutaric acid (EM-138). The mice received either a single treatment, five treatments on alternate days, or one treatement every day for eleven days. Fourteen days after tumor cell inoculation, the lungs were removed from the mice and the surface pulmonary metastases were counted.
B16-BL6 melanoma cells (5×10^4) were injected intravenously into the tail veins of C57B1/6 mice. Three days later, treatment began. The mice received intraperitoneal injections of thalidomide (0.4 mmol/kg), thalidomide (3.0 mmol/kg) or 2-phthalimidinoglutaric acid (EM-138) (0.4 mmol/kg) every day. Fourteen days after tumor cell inoculation, the lungs were removed from the mice and the surface pulmonary metastases were counted.

[2] = Stability compared with thalidomide; format: physicochemical
Crohn's disease = assay: Treatment of a patient with Crohn's disease; format: in vivo, human; details: 100 mg twice a day orally, one week
Experimental: A patient with Crohn's disease was treated using the methods of the present invention. […] Thalidomide was orally administered to them at a dosage of 100 mg twice a day.

[3] = 0.4 mmol/kg intraperitoneal every day from day 3, lungs day 14

O=C1CCC(N2Cc3ccccc3C2=O)C(=O)N1 (stereo not shown) [EM-12]
inhibition in rabbit cornea assay ([1]; 100 mg/kg/day): 21% | median inhibition of the area of vascularized cornea ([1]; 200 mg/kg orally): 42% | inhibition in rabbit cornea assay ([1]; 200 mg/kg/day): 43%

O=C(O)CCC(C(=O)O)N1Cc2ccccc2C1=O (stereo not shown) [EM-138, 2-phthalimidinoglutaric acid]
T/C, ratio of lung metastases of treated vs. control animals (B16-BL6 melanoma cells; [3]): 0.2 | reduction of pulmonary metastases (B16-BL6 melanoma cells; [3]): 80% | inhibition of B16-BL6 metastasis (B16-BL6 melanoma cells; 0.8 mmol/kg/day): over 90% | inhibition of metastasis after a single administration (B16-BL6 melanoma cells; single administration): significantly inhibits metastasis | stability relative to thalidomide [2]: more stable than thalidomide

O=C1NCCCC1N1C(=O)c2ccccc2S1(=O)=O (stereo not shown) [Supidimide]
activity in the rabbit cornea assay (in words) ([1]; 200 mg/kg orally): no activity | area of corneal neovascularization, % of control ([1]; 200 mg/kg orally, day 8): 107 % of control

O=C1CCC(N2C(=O)c3ccccc3C2=O)C(=O)N1 (stereo not shown) [thalidomide]
density of vessel ingrowth ([1]; 200 mg/kg orally): markedly reduced | onset of inhibition of angiogenesis ([1]; 200 mg/kg orally (FIG. 7)): seen after only two doses | inhibition of the area of vascularized cornea, range in three experiments ([1]; 200 mg/kg orally, begun day 2, day 8 measurements): 30-51% | median inhibition of the area of vascularized cornea ([1]; 200 mg/kg orally): 36% | inhibition of pulmonary metastases (in words) (B16-BL6 melanoma cells; 0.4 mmol/kg intraperitoneal every day): minimal inhibition | T/C, ratio of lung metastases of treated vs. control animals (B16-BL6 melanoma cells; [3]): 0.9 | inhibition of pulmonary metastases (in words) (B16-BL6 melanoma cells; 3.0 mmol/kg intraperitoneal every day): inhibited metastases | gastrointestinal symptoms, including diarrhea and cramping (Crohn's disease): lessened | skin lesion on the lower leg (Crohn's disease): resolved
